Experimental findings from ChEMBL document CHEMBL2396653, “Synthesis and antimycobacterial evaluation of N-substituted 5-chloropyrazine-2-carboxamides” (Bioorg Med Chem Lett, 2013) are described below.

SMILES strings stand for the structures. Converted amounts (≈) assume the structure as drawn. The source made the active and inactive calls. The calls are words filed in the database; no cut-off is given here.

A short description of series [1]: Stability of the compound at pH 7. Format: physicochemical. The note with it: buffer.
Series [2] deals with Trichophyton mentagrophytes. The series is described as follows: Antifungal activity against Trichophyton mentagrophytes 445 assessed as growth inhibition after 72 to 120 hrs by microbroth dilution method. Format: functional, organism-based. A general note: Broth dilution looks for growth in wells or tubes with falling amounts of substance.
Another series has as its system Lichtheimia corymbifera. Description: Antifungal activity against Absidia corymbifera 272 assessed as growth inhibition after 24 to 48 hrs by microbroth dilution method. Format: functional, organism-based.
In the next series the test system is Aspergillus fumigatus. Description: Antifungal activity against Aspergillus fumigatus 231 assessed as growth inhibition after 24 to 48 hrs by microbroth dilution method. The series is classed as functional, organism-based.
The test system of another series is Trichosporon asahii. Description: Antifungal activity against Trichosporon asahii 1188 assessed as growth inhibition after 24 to 48 hrs by microbroth dilution method. Format: functional, organism-based.
Another series concerns Nakaseomyces glabratus. Description: Antifungal activity against Candida glabrata 20/I assessed as growth inhibition after 24 to 48 hrs by microbroth dilution method. The series is classed as functional, organism-based.
In a further series the test system is Pichia kudriavzevii. Description: Antifungal activity against Candida krusei E28 assessed as growth inhibition after 24 to 48 hrs by microbroth dilution method. Format: functional, organism-based.
The next series relates to Candida albicans. Description: Antifungal activity against Candida albicans ATCC 44859 assessed as growth inhibition after 24 to 48 hrs by microbroth dilution method. Format: functional, organism-based.
A further series concerns Candida tropicalis. The series is described as follows: Antifungal activity against Candida tropicalis 156 assessed as growth inhibition after 24 to 48 hrs by microbroth dilution method. Format: functional, organism-based.
Series [3] deals with Klebsiella pneumoniae. Description: Antibacterial activity against ESBL-positive Klebsiella pneumoniae J 14368/08 clinical isolate assessed as growth inhibition after 24 to 48 hrs by microbroth dilution method. Format: functional, organism-based.
In series [4] the test system is Klebsiella pneumoniae. Description: Antibacterial activity against Klebsiella pneumoniae D 11750/08 clinical isolate assessed as growth inhibition after 24 to 48 hrs by microbroth dilution method. The series is classed as functional, organism-based.
For a further series, the system named is Enterococcus. The series is described as follows: Antibacterial activity against Enterococcus sp. J 14365/08 clinical isolate assessed as growth inhibition after 24 to 48 hrs by microbroth dilution method. Format: functional, organism-based.
Series [5] relates to Staphylococcus epidermidis. Description: Antibacterial activity against Staphylococcus epidermidis H 6966/08 clinical isolate assessed as growth inhibition after 24 to 48 hrs by microbroth dilution method. Format: functional, organism-based.
Series [6] has as its system Staphylococcus aureus. Description: Antibacterial activity against methicillin-resistant Staphylococcus aureus H 5996/08 clinical isolate assessed as growth inhibition after 24 to 48 hrs by microbroth dilution method. Format: functional, organism-based.
A further series concerns Pseudomonas aeruginosa. The series is described as follows: Antibacterial activity against Pseudomonas aeruginosa CCM 1961 assessed as growth inhibition after 24 to 48 hrs by microbroth dilution method. Format: functional, organism-based.
The next series has as its system Escherichia coli. Description: Antibacterial activity against Escherichia coli CCM 4517 assessed as growth inhibition after 24 to 48 hrs by microbroth dilution method. The series is classed as functional, organism-based.
The test system of series [7] is Staphylococcus aureus. The series is described as follows: Antibacterial activity against Staphylococcus aureus CCM 4516/08 assessed as growth inhibition after 24 to 48 hrs by microbroth dilution method. The series is classed as functional, organism-based.
The nature of series [8]: Lipophilicity, log K of the compound by HPLC analysis. The series is classed as physicochemical.
The test system of series [9] is Mycobacterium avium. The series is described as follows: Antimycobacterial activity against Mycobacterium avium CNCTC My 152/73 assessed as growth inhibition after 14 days by microdilution method. Format: functional. The note with it: CNCTC My 152/73, 336 h.
The subject of series [10] is Mycobacterium avium. Description: Antimycobacterial activity against Mycobacterium avium CNCTC My 80/72 assessed as growth inhibition after 14 days by microdilution method. The series is classed as functional. The note with it: CNCTC My 80/72, 336 h.
In a further series the test system is Mycobacterium kansasii. Description: Antimycobacterial activity against Mycobacterium kansasii CNCTC My 235/80 assessed as growth inhibition after 14 days by microdilution method. Format: functional. The note with it: CNCTC My 235/80, 336 h.
The test system of series [11] is Mycobacterium tuberculosis. Description: Antimycobacterial activity against Mycobacterium tuberculosis H37Rv assessed as growth inhibition after 14 days by microdilution method. The series is classed as functional. Particulars: 336 h.

With `COc1ccc(NC(=O)c2cnc(Cl)cn2)c(OC)c1`, the Stability result in series [1] is “Stable”. The “growth inhibition (GI)” value (in series [2]; in the series on Lichtheimia corymbifera; with Aspergillus fumigatus; in the series on Trichosporon asahii; with Nakaseomyces glabratus; in the series with Pichia kudriavzevii) was “inactive” throughout. The “growth inhibition (GI)” value (in the series on Candida albicans; with Candida tropicalis; in the series with Klebsiella pneumoniae [3]; in the series on Klebsiella pneumoniae [4]; in the series with Enterococcus; in series [5]) was “inactive” each time. Also, the “growth inhibition (GI)” value with Staphylococcus aureus [6], in the series with Pseudomonas aeruginosa, in the series with Escherichia coli and in the series on Staphylococcus aureus [7] was “inactive” each time. Further, the “log K” value in series [8] was 0.5791. For the same compound, the minimal inhibitory concentration (MIC) (in the series on Mycobacterium avium [9]; in the series on Mycobacterium avium [10]; with Mycobacterium kansasii; in [11]) was more than 100 µg/mL each time.

For `Cc1ccc(CNC(=O)c2cnc(Cl)cn2)cc1`, in series [1], the Stability result is “Stable”. Moreover, the “growth inhibition (GI)” value (in [2]; in the series on Lichtheimia corymbifera; with Aspergillus fumigatus; with Trichosporon asahii; in the series with Nakaseomyces glabratus; with Pichia kudriavzevii) was “inactive” throughout. Moreover, the “growth inhibition (GI)” value (with Candida albicans; in the series on Candida tropicalis; with Klebsiella pneumoniae [3]; in the series on Klebsiella pneumoniae [4]; in the series on Enterococcus; in series [5]) was “inactive” in each case. The “growth inhibition (GI)” value in the series with Staphylococcus aureus [6], in the series on Pseudomonas aeruginosa, in the series on Escherichia coli and with Staphylococcus aureus [7] was “inactive” throughout. The “log K” value in series [8] was found to be 0.4199. Further, the minimum inhibitory concentration (MIC) in the series on Mycobacterium avium [9] was more than 100 µg/mL; in the series on Mycobacterium avium [10] it was more than 100 µg/mL; in the series on Mycobacterium kansasii, 3.13 µg/mL (≈ 12 µM); in series [11], 25 µg/mL (≈ 95.5 µM).

Take `O=C(NCc1cccc(Cl)c1)c1cnc(Cl)cn1`: in [1], the Stability entry is reported as “Stable”. The “growth inhibition (GI)” value (in [2]; in the series on Lichtheimia corymbifera; with Aspergillus fumigatus; in the series on Trichosporon asahii; with Nakaseomyces glabratus; in the series with Pichia kudriavzevii) was “inactive” in each case. Besides, the “growth inhibition (GI)” value (in the series with Candida albicans; in the series with Candida tropicalis; in the series on Klebsiella pneumoniae [3]; with Klebsiella pneumoniae [4]; with Enterococcus; in [5]) was “inactive” in each case. Moreover, the “growth inhibition (GI)” value in the series on Staphylococcus aureus [6], with Pseudomonas aeruginosa, in the series on Escherichia coli and in the series on Staphylococcus aureus [7] was “inactive” each time. Besides, the “log K” value in [8] is recorded as 0.4229. Besides, the MIC was more than 100 µg/mL in the series on Mycobacterium avium [9], more than 100 µg/mL in the series on Mycobacterium avium [10], 50 µg/mL (≈ 177 µM) in the series with Mycobacterium kansasii and 25 µg/mL (≈ 88.6 µM) in [11].

On to `O=C(Nc1ccc(Br)cc1)c1cnc(Cl)cn1`, for which the Stability result in [1] is “Stable”. The “growth inhibition (GI)” value (in series [2]; in the series with Lichtheimia corymbifera; with Aspergillus fumigatus; in the series with Trichosporon asahii; in the series on Nakaseomyces glabratus; in the series with Pichia kudriavzevii) was “inactive” throughout. The “growth inhibition (GI)” value (in the series with Candida albicans; in the series with Candida tropicalis; in the series on Klebsiella pneumoniae [3]; with Klebsiella pneumoniae [4]; in the series on Enterococcus; in [5]) was “inactive” throughout. The “growth inhibition (GI)” value with Staphylococcus aureus [6], in the series with Pseudomonas aeruginosa, with Escherichia coli and with Staphylococcus aureus [7] was “inactive” each time. Besides, the “log K” value in series [8] turned out to be 0.6601. In addition, the MIC is more than 100 µg/mL with Mycobacterium avium [9], more than 100 µg/mL in the series with Mycobacterium avium [10], 6.25 µg/mL (≈ 20 µM) in the series with Mycobacterium kansasii and 3.13 µg/mL (≈ 10 µM) in series [11].

In the case of `NNC(=O)c1ccncc1` [ISONIAZID], the MIC in the series with Mycobacterium avium [9] worked out at 6.25 µg/mL (≈ 45.6 µM); in the series with Mycobacterium avium [10], 25 µg/mL (≈ 182 µM); in the series with Mycobacterium kansasii it was 12.5 µg/mL (≈ 91.1 µM); in series [11], 1.56 µg/mL (≈ 11.4 µM).

On to `OC(Cn1cncn1)(Cn1cncn1)c1ccc(F)cc1F`, for which the “growth inhibition (GI)” value (in series [2]; with Lichtheimia corymbifera; in the series on Aspergillus fumigatus; with Trichosporon asahii; with Nakaseomyces glabratus; in the series with Pichia kudriavzevii) was “Active” in each case. The “growth inhibition (GI)” value in the series on Candida albicans and with Candida tropicalis was “Active” throughout.

Turning to `NC(=O)c1cnccn1` [PYRAZINAMIDE], the MIC was more than 100 µg/mL in the series with Mycobacterium avium [9], more than 100 µg/mL with Mycobacterium avium [10], more than 100 µg/mL with Mycobacterium kansasii and 12.5 µg/mL (≈ 102 µM) in [11].

Regarding `O=C(Nc1cccc([N+](=O)[O-])c1)c1cnc(Cl)cn1`, the Stability result in [1] is on record as “Stable”. Besides, the “growth inhibition (GI)” value (in series [2]; with Lichtheimia corymbifera; in the series with Aspergillus fumigatus; in the series with Trichosporon asahii; in the series on Nakaseomyces glabratus; in the series on Pichia kudriavzevii) was “inactive” each time. Further, the “growth inhibition (GI)” value (in the series on Candida albicans; in the series on Candida tropicalis; in the series with Klebsiella pneumoniae [3]; in the series on Klebsiella pneumoniae [4]; in the series on Enterococcus; in series [5]) was “inactive” in each case. The “growth inhibition (GI)” value in the series with Staphylococcus aureus [6], in the series with Pseudomonas aeruginosa, with Escherichia coli and in the series with Staphylococcus aureus [7] was “inactive” each time. Also, the “log K” value in series [8] came out at 0.3443. The minimal inhibitory concentration (MIC) with Mycobacterium avium [9] was more than 100 µg/mL; in the series with Mycobacterium avium [10] it was more than 100 µg/mL; in series [11] it was 3.13 µg/mL (≈ 11.2 µM).

`O=C(Nc1ccccc1Cl)c1cnc(Cl)cn1`: in [1], the Stability result is given as “Stable”. The “growth inhibition (GI)” value (in series [2]; with Lichtheimia corymbifera; in the series with Aspergillus fumigatus; with Trichosporon asahii; in the series on Nakaseomyces glabratus; in the series on Pichia kudriavzevii) was “inactive” each time. Further, the “growth inhibition (GI)” value (in the series with Candida albicans; with Candida tropicalis; in the series with Klebsiella pneumoniae [3]; in the series with Klebsiella pneumoniae [4]; with Enterococcus; in [5]) was “inactive” in each case. Also, the “growth inhibition (GI)” value with Staphylococcus aureus [6], with Pseudomonas aeruginosa, in the series with Escherichia coli and with Staphylococcus aureus [7] was “inactive” each time. In addition, the “log K” value in [8] is 0.8193. Also, the minimal inhibitory concentration (MIC) in the series with Mycobacterium avium [9] was more than 100 µg/mL; in the series with Mycobacterium avium [10] it was more than 100 µg/mL; in series [11], 0.78 µg/mL (≈ 2.91 µM).

The term MIC denotes the least concentration at which growth counts as inhibited.
